Experimental data published in the kinase profiling compilation of Christmann-Franck et al. (2016).

Experiments:
Experiment in all cases: Free Choice Kinase Assay Projects, Flashplate
MET (human) = MET (human) (UniProt P08581); details: compound 10.0 µM; ATP 0.3 µM
MAP3K8 (human) = MAP3K8 (human) (UniProt P41279); details: compound 10.0 µM; ATP 3 µM
NUAK1 (human) = NUAK1 (human) (UniProt O60285); details: compound 10.0 µM; ATP 1 µM
CDK2 CCNA2 (human) = CDK2 CCNA2 (human) (UniProt P24941+P20248); details: compound 10.0 µM; ATP 0.3 µM
MAPK14 (human) = MAPK14 (human) (UniProt Q16539); details: compound 10.0 µM; ATP 1 µM
KDR (human) = KDR (human) (UniProt P35968); details: compound 10.0 µM; ATP 1 µM
PLK1 (human) = PLK1 (human) (UniProt P53350); details: compound 10.0 µM; ATP 1 µM
CSNK2A1 (human) = CSNK2A1 (human) (UniProt P68400); details: compound 10.0 µM; ATP 0.1 µM
EGFR (human) = EGFR (human) (UniProt P00533); details: compound 10.0 µM; ATP 0.3 µM
IGF1R (human) = IGF1R (human) (UniProt P08069); details: compound 10.0 µM; ATP 1 µM
AURKB (human) = AURKB (human) (UniProt Q96GD4); details: compound 10.0 µM; ATP 10 µM
PDGFRB (human) = PDGFRB (human) (UniProt P09619); details: compound 10.0 µM; ATP 0.3 µM
CDK4 CCND1 (human) = CDK4 CCND1 (human) (UniProt P11802+P24385); details: compound 10.0 µM; ATP 3 µM
AURKA (human) = AURKA (human) (UniProt O14965); details: compound 10.0 µM; ATP 10 µM
PLK4 (human) = PLK4 (human) (UniProt O00444); details: compound 10.0 µM; ATP 0.3 µM
MAPK10 (human) = MAPK10 (human) (UniProt P53779); details: compound 10.0 µM; ATP 0.3 µM
AKT1 (human) = AKT1 (human) (UniProt P31749); details: compound 10.0 µM; ATP 3 µM
EPHB4 (human) = EPHB4 (human) (UniProt P54760); details: compound 10.0 µM; ATP 1 µM
SRC (human) = SRC (human) (UniProt P12931); details: compound 10.0 µM; ATP 0.3 µM
AXL (human) = AXL (human) (UniProt P30530); details: compound 10.0 µM; ATP 0.3 µM
TEK (human) = TEK (human) (UniProt Q02763); details: compound 10.0 µM; ATP 1 µM
PTK2 (human) = PTK2 (human) (UniProt Q05397); details: compound 10.0 µM; ATP 1 µM
ERBB2 (human) = ERBB2 (human) (UniProt P04626); details: compound 10.0 µM; ATP 1 µM

Sequence of MAP3K8 (human) (P41279 whole entry, looked up): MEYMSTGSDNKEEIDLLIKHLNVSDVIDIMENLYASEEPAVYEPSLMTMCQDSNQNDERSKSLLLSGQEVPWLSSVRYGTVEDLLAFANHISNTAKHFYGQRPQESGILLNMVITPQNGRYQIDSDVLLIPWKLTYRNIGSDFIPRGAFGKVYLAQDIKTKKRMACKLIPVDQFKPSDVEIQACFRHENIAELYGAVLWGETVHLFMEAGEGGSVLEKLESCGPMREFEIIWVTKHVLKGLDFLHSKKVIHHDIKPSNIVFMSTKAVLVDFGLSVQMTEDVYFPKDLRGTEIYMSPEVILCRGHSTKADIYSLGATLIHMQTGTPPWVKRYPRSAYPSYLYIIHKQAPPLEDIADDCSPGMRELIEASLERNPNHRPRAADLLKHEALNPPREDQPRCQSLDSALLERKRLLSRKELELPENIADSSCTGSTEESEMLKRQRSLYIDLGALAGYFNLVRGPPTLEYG
Sequence of NUAK1 (human) (O60285 whole entry, looked up): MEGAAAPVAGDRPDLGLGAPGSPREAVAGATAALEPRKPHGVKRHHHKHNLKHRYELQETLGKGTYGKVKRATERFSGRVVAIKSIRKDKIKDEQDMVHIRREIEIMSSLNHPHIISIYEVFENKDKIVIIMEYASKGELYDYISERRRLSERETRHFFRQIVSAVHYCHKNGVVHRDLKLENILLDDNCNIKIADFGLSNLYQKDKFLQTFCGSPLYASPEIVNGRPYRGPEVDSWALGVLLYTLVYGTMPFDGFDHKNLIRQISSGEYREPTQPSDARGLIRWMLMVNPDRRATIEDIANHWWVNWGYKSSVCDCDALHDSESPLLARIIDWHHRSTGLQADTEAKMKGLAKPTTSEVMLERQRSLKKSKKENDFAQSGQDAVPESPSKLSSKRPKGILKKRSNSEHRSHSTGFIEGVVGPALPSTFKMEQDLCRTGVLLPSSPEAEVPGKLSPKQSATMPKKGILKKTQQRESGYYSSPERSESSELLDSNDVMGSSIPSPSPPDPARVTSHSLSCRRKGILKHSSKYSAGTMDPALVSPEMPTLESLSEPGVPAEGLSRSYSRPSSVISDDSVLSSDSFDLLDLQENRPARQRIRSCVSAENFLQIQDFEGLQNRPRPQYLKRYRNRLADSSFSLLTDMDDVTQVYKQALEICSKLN
Sequence of PDGFRB (human) (P09619 whole entry, looked up): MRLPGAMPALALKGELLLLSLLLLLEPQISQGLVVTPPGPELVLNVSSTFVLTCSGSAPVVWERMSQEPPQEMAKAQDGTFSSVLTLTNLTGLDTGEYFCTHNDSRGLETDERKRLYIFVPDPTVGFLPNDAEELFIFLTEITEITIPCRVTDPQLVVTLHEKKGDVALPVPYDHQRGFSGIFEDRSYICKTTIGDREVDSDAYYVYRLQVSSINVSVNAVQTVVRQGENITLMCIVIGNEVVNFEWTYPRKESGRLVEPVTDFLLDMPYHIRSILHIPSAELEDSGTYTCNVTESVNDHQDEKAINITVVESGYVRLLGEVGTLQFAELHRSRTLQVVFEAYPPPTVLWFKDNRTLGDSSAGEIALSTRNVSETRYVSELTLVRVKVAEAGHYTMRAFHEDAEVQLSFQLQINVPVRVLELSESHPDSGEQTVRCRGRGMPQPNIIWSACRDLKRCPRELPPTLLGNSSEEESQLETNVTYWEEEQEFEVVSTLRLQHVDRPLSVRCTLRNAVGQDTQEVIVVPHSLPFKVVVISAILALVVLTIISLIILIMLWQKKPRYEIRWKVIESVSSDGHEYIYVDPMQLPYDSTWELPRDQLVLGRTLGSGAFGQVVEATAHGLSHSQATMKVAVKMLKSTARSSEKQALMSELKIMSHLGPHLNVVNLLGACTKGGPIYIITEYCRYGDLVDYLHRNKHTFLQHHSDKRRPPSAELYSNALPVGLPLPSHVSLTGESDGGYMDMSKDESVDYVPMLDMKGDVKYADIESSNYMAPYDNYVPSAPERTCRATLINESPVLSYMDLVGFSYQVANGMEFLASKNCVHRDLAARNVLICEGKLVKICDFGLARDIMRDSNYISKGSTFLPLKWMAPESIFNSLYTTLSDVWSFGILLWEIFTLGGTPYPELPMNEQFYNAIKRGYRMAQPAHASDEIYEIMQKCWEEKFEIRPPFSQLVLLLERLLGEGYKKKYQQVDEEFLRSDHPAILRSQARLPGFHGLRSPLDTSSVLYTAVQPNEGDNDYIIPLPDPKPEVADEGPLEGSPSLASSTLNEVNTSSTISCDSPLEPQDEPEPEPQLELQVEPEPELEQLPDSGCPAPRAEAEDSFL
Sequence of MAPK14 (human) (Q16539 whole entry, looked up): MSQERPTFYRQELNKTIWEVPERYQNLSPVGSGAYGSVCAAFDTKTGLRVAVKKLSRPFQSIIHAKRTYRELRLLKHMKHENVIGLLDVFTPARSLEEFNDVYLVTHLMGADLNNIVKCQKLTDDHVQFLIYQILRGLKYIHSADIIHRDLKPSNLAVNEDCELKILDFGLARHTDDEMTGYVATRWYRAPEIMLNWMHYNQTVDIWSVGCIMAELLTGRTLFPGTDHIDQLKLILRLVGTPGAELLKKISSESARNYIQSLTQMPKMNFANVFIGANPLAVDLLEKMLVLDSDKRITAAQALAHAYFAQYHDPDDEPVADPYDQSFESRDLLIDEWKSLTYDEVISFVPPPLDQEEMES
Sequence of CDK2 CCNA2 (human) (P20248 whole entry, looked up, other chains not shown): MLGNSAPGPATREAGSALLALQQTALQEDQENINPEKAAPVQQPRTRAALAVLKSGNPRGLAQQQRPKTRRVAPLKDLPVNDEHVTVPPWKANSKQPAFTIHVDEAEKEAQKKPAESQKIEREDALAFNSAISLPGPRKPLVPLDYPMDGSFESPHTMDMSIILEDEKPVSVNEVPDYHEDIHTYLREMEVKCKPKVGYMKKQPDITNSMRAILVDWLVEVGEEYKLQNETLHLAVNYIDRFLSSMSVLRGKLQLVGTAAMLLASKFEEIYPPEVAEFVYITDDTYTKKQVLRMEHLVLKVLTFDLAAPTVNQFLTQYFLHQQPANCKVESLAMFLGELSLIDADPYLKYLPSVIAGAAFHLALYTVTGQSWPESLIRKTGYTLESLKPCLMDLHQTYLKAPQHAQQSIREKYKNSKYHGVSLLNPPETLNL
Sequence of CDK4 CCND1 (human) (P11802 whole entry, looked up): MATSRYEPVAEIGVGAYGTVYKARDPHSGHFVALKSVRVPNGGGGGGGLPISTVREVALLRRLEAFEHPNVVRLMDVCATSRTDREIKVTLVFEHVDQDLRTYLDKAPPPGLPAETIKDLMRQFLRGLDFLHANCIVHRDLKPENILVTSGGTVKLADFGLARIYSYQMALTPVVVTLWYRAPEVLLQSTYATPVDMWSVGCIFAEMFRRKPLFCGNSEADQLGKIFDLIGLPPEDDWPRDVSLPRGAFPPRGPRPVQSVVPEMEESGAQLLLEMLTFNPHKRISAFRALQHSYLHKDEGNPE
Sequence of CDK4 CCND1 (human) (P24385 whole entry, looked up): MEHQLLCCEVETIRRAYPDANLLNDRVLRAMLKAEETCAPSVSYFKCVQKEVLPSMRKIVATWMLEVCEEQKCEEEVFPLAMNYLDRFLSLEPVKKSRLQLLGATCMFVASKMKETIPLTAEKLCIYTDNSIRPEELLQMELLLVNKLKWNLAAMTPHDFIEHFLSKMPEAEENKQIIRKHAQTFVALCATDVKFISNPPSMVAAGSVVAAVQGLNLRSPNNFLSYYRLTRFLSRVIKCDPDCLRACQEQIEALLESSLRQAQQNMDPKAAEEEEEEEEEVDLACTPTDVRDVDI
Sequence of CSNK2A1 (human) (P68400 whole entry, looked up): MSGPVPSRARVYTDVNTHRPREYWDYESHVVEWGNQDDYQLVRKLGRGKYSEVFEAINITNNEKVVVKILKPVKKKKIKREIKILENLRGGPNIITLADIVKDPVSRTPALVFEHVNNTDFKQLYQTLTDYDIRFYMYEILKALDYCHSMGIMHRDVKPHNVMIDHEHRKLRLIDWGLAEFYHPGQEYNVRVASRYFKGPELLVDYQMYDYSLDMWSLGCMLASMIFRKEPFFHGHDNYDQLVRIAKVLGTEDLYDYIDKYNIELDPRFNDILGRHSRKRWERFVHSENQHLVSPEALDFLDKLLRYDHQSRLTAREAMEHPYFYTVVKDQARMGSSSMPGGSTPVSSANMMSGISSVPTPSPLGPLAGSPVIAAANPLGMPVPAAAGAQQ
Sequence of AURKA (human) (O14965 whole entry, looked up): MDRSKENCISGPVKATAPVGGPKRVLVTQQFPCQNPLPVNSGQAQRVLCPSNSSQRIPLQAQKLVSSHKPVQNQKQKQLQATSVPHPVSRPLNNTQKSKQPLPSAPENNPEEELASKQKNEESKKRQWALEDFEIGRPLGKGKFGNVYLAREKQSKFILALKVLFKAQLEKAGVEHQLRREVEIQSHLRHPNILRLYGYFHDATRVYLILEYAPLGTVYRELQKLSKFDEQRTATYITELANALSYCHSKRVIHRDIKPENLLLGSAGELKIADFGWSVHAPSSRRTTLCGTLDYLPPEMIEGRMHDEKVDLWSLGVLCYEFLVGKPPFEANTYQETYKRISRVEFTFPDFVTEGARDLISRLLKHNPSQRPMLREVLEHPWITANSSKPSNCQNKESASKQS
Sequence of AKT1 (human) (P31749 whole entry, looked up): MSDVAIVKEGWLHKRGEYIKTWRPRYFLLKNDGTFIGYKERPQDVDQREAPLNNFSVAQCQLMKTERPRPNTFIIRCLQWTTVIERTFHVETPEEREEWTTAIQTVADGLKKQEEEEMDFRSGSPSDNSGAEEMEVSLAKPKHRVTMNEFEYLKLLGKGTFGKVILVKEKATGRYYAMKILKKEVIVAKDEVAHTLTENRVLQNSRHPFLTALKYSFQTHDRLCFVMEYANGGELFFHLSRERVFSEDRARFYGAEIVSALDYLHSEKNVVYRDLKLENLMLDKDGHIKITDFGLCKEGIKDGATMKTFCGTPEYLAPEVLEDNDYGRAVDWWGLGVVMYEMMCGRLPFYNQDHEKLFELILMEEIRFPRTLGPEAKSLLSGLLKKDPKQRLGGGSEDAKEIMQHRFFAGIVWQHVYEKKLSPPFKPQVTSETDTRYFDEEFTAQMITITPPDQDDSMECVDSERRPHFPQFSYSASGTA

residual activity (MET (human)) [%]	residual activity (MAP3K8 (human)) [%]	residual activity (NUAK1 (human)) [%]	residual activity (CDK2 CCNA2 (human)) [%]	residual activity (MAPK14 (human)) [%]	residual activity (KDR (human)) [%]	residual activity (PLK1 (human)) [%]	residual activity (CSNK2A1 (human)) [%]	residual activity (EGFR (human)) [%]	residual activity (IGF1R (human)) [%]	residual activity (AURKB (human)) [%]	residual activity (PDGFRB (human)) [%]	residual activity (CDK4 CCND1 (human)) [%]	residual activity (AURKA (human)) [%]	residual activity (PLK4 (human)) [%]	residual activity (MAPK10 (human)) [%]	residual activity (AKT1 (human)) [%]	residual activity (EPHB4 (human)) [%]	residual activity (SRC (human)) [%]	residual activity (AXL (human)) [%]	SMILES	also measured
43	50	43	17	3	39	38	78	16	20	58	45	27	64	17	20	66	31	14	44	CC(Nc1cc(-c2nc(SCc3ccccc3)[nH]c2-c2ccc(F)cc2)ccn1)c1ccccc1 (stereo not given)	residual activity (TEK (human)): 13%; residual activity (PTK2 (human)): 82%; residual activity (ERBB2 (human)): 21%
35	69	89	45	0	4	95	81	1	18	50	20	99	44	26	14	76	13	1	54	Fc1ccc(-c2[nH]c(CCc3ccccc3)nc2-c2ccncc2)cc1	residual activity (TEK (human)): 9%; residual activity (PTK2 (human)): 99%; residual activity (ERBB2 (human)): 2%
58	91	121	126	2	7	103	95	3	79	55	35	121	52	42	17	144	35	12	76	Oc1cccc(CSc2nc(-c3ccncc3)c(-c3ccc(F)cc3)[nH]2)c1	residual activity (TEK (human)): 18%; residual activity (PTK2 (human)): 88%; residual activity (ERBB2 (human)): 2%
73	73	91	74	23	48	83	86	24	22	80	81	44	46	34	63	56	38	38	63	Fc1ccc(-c2[nH]c(SCC3CCCCC3)nc2-c2ccncc2)cc1	residual activity (TEK (human)): 36%; residual activity (PTK2 (human)): 106%; residual activity (ERBB2 (human)): 46%
91	105	105	125	2	39	85	98	23	96	90	81	132	93	76	48	102	61	60	101	CSc1nc(-c2ccnc(F)c2)c(-c2ccc(F)cc2)[nH]1	residual activity (TEK (human)): 71%; residual activity (PTK2 (human)): 100%; residual activity (ERBB2 (human)): 18%
99	106	106	211	4	14	118	90	26	36	57	50	112	56	54	18	122	21	19	38	CSc1nc(-c2ccnc(N(C(=O)C3CC3)C(=O)C3CC3)c2)c(-c2ccc(F)cc2)n1C	residual activity (TEK (human)): 24%; residual activity (PTK2 (human)): 79%; residual activity (ERBB2 (human)): 26%
89	76	93	77	3	58	94	94	19	72	80	76	101	79	71	41	110	49	42	82	Fc1ccc(-c2[nH]c(SCc3ccccc3)nc2-c2ccncc2)cc1	residual activity (TEK (human)): 50%; residual activity (PTK2 (human)): 86%; residual activity (ERBB2 (human)): 23%
53	58	71	43	9	38	60	95	7	42	47	44	48	62	24	57	75	42	17	62	Fc1ccc(-c2[nH]c(SCc3ccccc3)nc2-c2ccnc(Cl)c2)cc1	residual activity (TEK (human)): 16%; residual activity (PTK2 (human)): 120%; residual activity (ERBB2 (human)): 9%
76	85	95	66	10	51	82	83	30	60	79	85	89	80	59	58	137	52	29	85	CSc1ccccc1CSc1nc(-c2ccncc2)c(-c2ccc(F)cc2)[nH]1	residual activity (TEK (human)): 48%; residual activity (PTK2 (human)): 98%; residual activity (ERBB2 (human)): 29%
45	101	106	90	1	3	86	93	2	68	66	16	102	53	57	12	110	18	8	80	N#CCSc1nc(-c2ccncc2)c(-c2ccc(F)cc2)[nH]1	residual activity (TEK (human)): 10%; residual activity (PTK2 (human)): 71%; residual activity (ERBB2 (human)): 2%
